Data taken from patent US20250188123A1, “PROTEASE INHIBITORS” (Regents of the University of Minnesota, priority 2022, published 2025).
Entries after “also recorded” stand apart in the source; their conditions may differ. Where two headings read alike, the source gives them in different places.

Target: T1, recombinant human caspase-2 (cleavage of tau at D314) (Homo sapiens, UniProt P42575)
T1 construct: human caspase-2 p19 and p12 subunits were cloned as two separate open reading frames in the pCOLADuet-1 vector; made in house; host or cells: E. coli BL21(DE3)
T1 sequence (P42575 170-325 limits assumed): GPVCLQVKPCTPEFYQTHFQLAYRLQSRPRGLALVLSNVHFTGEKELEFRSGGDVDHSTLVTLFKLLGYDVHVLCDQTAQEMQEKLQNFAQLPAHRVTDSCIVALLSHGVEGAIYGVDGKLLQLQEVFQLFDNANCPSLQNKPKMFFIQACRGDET
T1 sequence (P42575 348-452 limits assumed): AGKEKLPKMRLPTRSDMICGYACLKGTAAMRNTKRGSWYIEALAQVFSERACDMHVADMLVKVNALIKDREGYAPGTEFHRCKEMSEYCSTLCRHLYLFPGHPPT
Assay: In vitro caspase-2-catalyzed tau cleavage assay (Δtau314 production, IP/WB)
Type: biochemical
Settings: for inhibition at 10 µM: read-out: inhibition of Casp2-catalyzed Δtau314 production (tau cleavage at D314)
Procedure: DNA sequences encoding human caspase-2 p19 and p12 subunits were cloned as two separate open reading frames in the pCOLADuet-1 vector (Millipore Sigma, Burlington, MA). The DNA sequence encoding human microtubule-associated protein tau 0N4R isoform was cloned in the pET28a vector (Millipore Sigma). Expression of recombinant human caspase-2 and tau was induced using 150 μM isopropyl-β-D-thiogalactopyranoside (IPTG) (Promega, Madison, WI) in the BL21(DE3) E. coli strain (Millipore Sigma) at room temperature for 16 hours while shaking at 250 rpm. Cells were then harvested via centrifugation at 6,000 g, 4° C. for 15 minutes, followed by lysis via sonication. Proteins were purified using HisPur Ni-NTA resin (Thermo Fisher Scientific, Waltham, MA) followed by HiTrap Chelating HP columns (GE Healthcare Life Sciences, Piscataway, NJ). Proteins were stored in 1× phosphate-buffered saline (pH 7.4) at 10 mg/mL (determined using a BCA assay (Thermo Fisher Scientific)), −80° C. until further use.
Purified recombinant Casp2 (final concentration during pre-incubation: 67 μM) was pre-incubated with various concentrations of inhibitory compounds at 4° C. for 72 h. Pre-treated enzyme was then incubated with purified recombinant tau at a molar ratio of 1:1 in 37° C. water bath, 1× reaction buffer (25 mM 4-(2-hydroxyethyl)-1-piperazineethanesulfonic acid (HEPES), 0.1% (w/v) 3-[(3-cholamidopropyl)dimethylammonio]-1-propanesulfonate (CHAPS), 10 mM dithiothreitol (DTT), pH 7.5) for 7 h. The final volume of each reaction was 100 μL. At the end of the 7-h incubation, 0.1% (v/v) protease inhibitor cocktail (Millipore Sigma) was added to stop the reactions.
Immediately after the reaction was stopped, the 100 μL enzyme-product mixture was diluted in 400 μL IP buffer (50 mM Tris-HCl (pH 7.4) and 150 mM NaCl, containing 0.1 mM phenylmethylsulfonyl fluoride, 0.2 mM 1,10-phenanthroline monohydrate, and protease inhibitor cocktail (Millipore Sigma)), and then incubated with 10 μg of Δtau314-specific monoclonal antibody 4F3 and 50 μL of Protein G Sepharose 4 Fast Flow resin (GE Healthcare) at 4° C. for 14-16 h. Subsequent resin wash and protein elution were performed as described previously (Liu P, et al., Scientific Reportsm 2020, 10, 3869). WB was performed according to a previously published protocol (Liu P, et al., Acta Neuropathologica Communications, 2019; 7, 111).

With `CC(=O)N[C@H](C(=O)N[C@@H](CC(=O)O)C(=O)N[C@H](C(=O)N1CCc2cc(C)ccc2[C@H]1C(=O)N[C@H](C=O)CC(=O)O)C(C)C)C(C)C` [Compound 30b, (S)-3-((S)-2-acetamido-3-methylbutanamido)-4-(((S)-1-((S)-1-(((S)-1-carboxy-3-oxopropan-2-yl)carbamoyl)-6-methyl-3,4-dihydroisoquinolin-2(1H)-yl)-3-methyl-1-oxobutan-2-yl)amino)-4-oxobutanoic acid, reference compound] the inhibition at 10 µM (compound at 10 μM, no-compound control = 100% Δtau314) was 68%.

`Cc1ccc2c(c1)CCN(C(=O)[C@@H](NC(=O)[C@H](CCCC(=O)O)NC(=O)C1Cc3ccccc3N1)C(C)C)[C@@H]2C(=O)N[C@H](C#N)CC(=O)O` (stereo partly drawn) [Compound 1, (8)-6-(((S)-1-((8)-1-(((S)-2-carboxy-1-cyanoethyl)carbamoyl)-6-methyl-3,4-dihydroisoquinolin-2(1H)-yl)-3-methyl-1-oxobutan-2-yl)amino)-5-((S)-indoline-2-carboxamido)-6-oxohexanoic acid] was tested, and the IC50 was 2020 ± 190 nM and the inhibition at 10 µM was 96%.

For `CC(=O)N[C@H](C(=O)NC(CC(=O)O)C(=O)N[C@H](C(=O)N1CCc2cc(C)ccc2C1C(=O)N[C@H](C=O)CC(=O)O)C(C)C)C(C)C` (stereo in doubt) [Compound 30a, (R)-3-((S)-2-acetamido-3-methylbutanamido)-4-(((S)-1-((S)-1-(((S)-1-carboxy-3-oxopropan-2-yl)carbamoyl)-6-methyl-3,4-dihydroisoquinolin-2(1H)-yl)-3-methyl-1-oxobutan-2-yl)amino)-4-oxobutanoic acid, reference compound], the “inhibition of Casp2-catalyzed Δtau314 production (tau cleavage at D314)” value (compound at 10 μM, no-compound control = 100% Δtau314, 10 µM) was “no inhibition; also recorded: did not inhibit”.
